# Measured values: patent US6506751B1, “Thiazolidinone compounds useful as chemokine inhibitors” (Millennium Pharmaceuticals, Inc., priority 1999, dated 2003)
# Key:
# CCR-5 receptor = target: T1, CCR-5 receptor (Homo sapiens, UniProt P51681); assay: 125I-gp120/sCD4/CCR-5 binding assay (CCR-5 receptor binding assay); details: for IC50: block of 125I-gp120 (HIV-1 JR-FL)/sCD4 binding to membranes from CCR-5/L 1.2 cells; for inhibition at 10 µM / % Inhib. @ 10 μM: 10 μM compound, 125I-gp120/sCD4 binding to membranes from CCR-5/L 1.2 cells; for inhibition at 10 µM: read-out: % Inhib. @ 10 μM
# T1 construct: membranes prepared from CCR-5/L 1.2 cells; expressed in transfected cells; host or cells: L1.2 cells (CCR-5/L 1.2), membrane preparation
# Method: The ^125I-gp120/sCD4/CCR-5 binding assay is carried out similarly as described in Wu et al., Nature, 1996;384:179-183. Briefly, the envelope gp120 protein derived from HIV-1 JR-FL (Trkola et al., Nature, 1996;384:184-186), a M-tropic strain, is iodinated using solid phase lactoperoxidase to a specific activity of 20 μCi/μg. For each binding reaction (in a final volume of 100 μL binding buffer [50 mM HEPES, pH 7.5, 1 mM CaCl2, 5 mM MgCl2, and 0.5% BSA]), 25 μL (2.5 μg) of membranes prepared from CCR-5/L 1.2 cells are mixed with 25 μL (3 nM) sCD4, followed by 25 μL (0.1 nM) radiolabeled gp120 in the presence or absence of 25 μL compound dissolved in DMSO (final concentration of DMSO 0.5%). The reactions are incubated at room temperature for 45 to 60 minutes and stopped by transferring the mixture to GFB filter plates, which are then washed 3 to 4 times with binding buffer containing 0.5 M NaCl. The plates are dried and MicroScint scintillation fluid is added before counting.
# T1 sequence (P51681 whole entry): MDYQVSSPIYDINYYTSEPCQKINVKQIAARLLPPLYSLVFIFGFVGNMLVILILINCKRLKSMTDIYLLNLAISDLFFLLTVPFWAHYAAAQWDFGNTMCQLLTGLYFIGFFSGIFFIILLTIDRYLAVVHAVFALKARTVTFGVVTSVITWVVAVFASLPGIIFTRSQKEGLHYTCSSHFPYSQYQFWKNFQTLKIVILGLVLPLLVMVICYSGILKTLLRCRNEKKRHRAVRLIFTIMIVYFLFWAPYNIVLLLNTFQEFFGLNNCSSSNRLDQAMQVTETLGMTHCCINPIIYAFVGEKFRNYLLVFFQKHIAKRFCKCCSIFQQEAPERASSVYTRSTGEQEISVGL
Compound,melting point [°C],IC50 (CCR-5 receptor) [µM],inhibition at 10 µM (CCR-5 receptor) [%],further results
"O=C1/C(=C\c2cccc(F)c2)SC(c2cccc(F)c2)N1CCCN1CCOCC1 (stereo not shown) [Compound 1, 5-(3-Fluorobenzylidene)-2-(3-fluorophenyl)-3-(3-morpholin-4-ylpropyl)-thiazolidin-4-one]",149 to 150,10.8,–,–
"O=C1/C(=C\c2ccco2)SC(c2cccc(Cl)c2)N1CCCN1CCCCC1 (stereo not shown) [Compound 20, 2-(3-Chlorophenyl)-5-(furan-2-ylmethylene)-3-(3-piperidin-1-yl-propyl)-thiazolidin-4-one]",156 to 158,0.17,–,–
"O=C1/C(=C\c2cccc(F)c2)SC(c2cccc(F)c2)N1CCCN1CCC(N2CCCCC2)CC1 (stereo not shown) [Compound 6, 3-(3-[1,4′]Bipiperidinyl-1′-yl-propyl)-5-(3-fluorobenzylidene)-2-(3-fluorophenyl)-thiazolidin-4-one]",160 to 162,1.26,–,–
"O=C1/C(=C\c2cccc(Cl)c2)SC(c2cccc(Cl)c2)N1CCCN1CCCCC1 (stereo not shown) [Compound 2, 5-(3-Chlorobenzylidene)-2-(3-chlorophenyl)-3-(3-piperidin-1-yl-propyl)-thiazolidin-4-one]",137 to 139,0.25,–,–
"O=C1/C(=C\c2cccc(F)c2)SC(c2cccc(Cl)c2)N1C1CCN(Cc2ccccc2)CC1 (stereo not shown) [Compound 19, 3-(1-Benzylpiperidin-4-yl)-2-(3-chlorophenyl)-5-(3-fluorobenzylidene)-thiazolidin-4-one]",121 to 123,0.28,–,–
"O=C1C(=Cc2cccc(F)c2)SC(c2cccc(C(F)(F)F)c2)N1CCCN1CCCCC1 (stereo not shown) [Compound 25, 5-(3-Fluoro-benzylidene)-3-(3-piperidin-1-yl-propyl)-2-(3-trifluoromethyl-phenyl)-thiazolidin-4-one]",–,–,50.7,–
"O=C1/C(=C\c2cccc(F)c2)SC(c2cccc(Cl)c2)N1CCCN1CCOCC1 (stereo not shown) [Compound 23, 2-(3-Chlorophenyl)-5-(3-fluorobenzylidene)-3-(3-morpholin-4-yl-propyl)-thiazolidin-4-one]",142 to 143,1.99,–,–
"O=C1C(=Cc2ccccc2)[S+]([O-])C(c2cccc(Cl)c2)N1CCCN1CCCCC1 (stereo not shown) [Compound 24, 5-Benzylidene-2-(3-chlorophenyl)-1-oxo-3-(3-piperidin-1-yl-propyl)-thiazolidin-4-one]",–,3.1,–,–
"O=C1C(=Cc2cccc(F)c2)SC(c2cccc(Cl)c2)N1CCCN1CCN(c2ncccn2)CC1 (stereo not shown) [Compound 29, 2-(3-Chloro-phenyl)-5-(3-fluoro-benzylidene)-3-[3-(4-pyrimidin-2-yl-piperazin-1-yl)-propyl]-thiazolidin-4-one]",–,–,86.8,–
"O=C1C(=Cc2ccccc2)SC(c2cccc(Cl)c2)N1CCCN1CCC(N2CCCCC2)CC1 (stereo not shown) [Compound 41, 5-Benzylidene-3-(3-[1,4′]bipiperidinyl-1′-yl-propyl)-2-(3-chloro-phenyl)-thiazolidin-4-one]",–,–,62.4,–
"O=C1C(=Cc2cccc(Cl)c2)SC(c2cccc(Cl)c2)N1CCCN1CCN(c2ccccn2)CC1 (stereo not shown) [Compound 50, 5-(3-Chloro-benzylidene)-2-(3-chloro-phenyl)-3-[3-(4-pyridin-2-yl-piperazin-1-yl)-propyl]-thiazolidin-4-one]",–,–,77.8,–
"O=C1C(=Cc2ccccc2)SC(c2cccc(F)c2)N1CCCN1CCCCC1 (stereo not shown) [Compound 36, 5-Benzylidene-2-(3-fluoro-phenyl)-3-(3-piperidin-1-yl-propyl)-thiazolidin-4-one]",–,–,63.3,–
"O=C1/C(=C\c2cccc(F)c2)SC(c2ccccc2)N1CCCN1CCC(N2CCCCC2)CC1 (stereo not shown) [Compound 5, 3-(3-[1,4′]Bipiperidinyl-1′-yl-propyl)-5-(3-fluorobenzylidene)-2-phenyl-thiazolidin-4-one]",–,0.71,–,–
"O=C1C(=Cc2ccccc2)SC(c2cccc(C(F)(F)F)c2)N1CCCN1CCN(c2ncccn2)CC1 (stereo not shown) [Compound 34, 5-Benzylidene-3-[3-(4-pyrimidin-2-yl-piperazin-1-yl)-propyl]-2-(3-trifluoromethyl-phenyl)-thiazolidin-4-one]",–,–,79.2,–
"O=C1C(=Cc2cccc(Cl)c2)SC(c2cccc(Cl)c2)N1CCCN1CCN(c2ncccn2)CC1 (stereo not shown) [Compound 51, 5-(3-Chloro-benzylidene)-2-(3-chloro-phenyl)-3-[3-(4-pyrimidin-2-yl-piperazin-1-yl)-propyl]-thiazolidin-4-one]",–,–,84,–
"O=C1C(=Cc2cccc(F)c2)SC(c2cccc(F)c2)N1CCCN1CCN(C2CCCCC2)CC1 (stereo not shown) [Compound 27, 3-[3-(4-Cyclohexyl-piperazin-1-yl)-propyl]-5-(3-fluoro-benzylidene)-2-(3-fluoro-phenyl)-thiazolidin-4-one]",–,–,57.6,–
"CCN(CC)CCSCCCN1C(=O)/C(=C\c2cccc(F)c2)SC1c1cccc(Cl)c1 (stereo not shown) [Compound 15, 2-(3-Chlorophenyl)-3-[3-(2-diethylaminoethylsulfanyl)propyl]-5-(3-fluorobenzylidene)-thiazolidin-4-one]",41 to 43,12.7,–,–
"O=C1C(=Cc2ccccc2)SC(c2cccc(F)c2)N1CCCN1CCN(c2ccccn2)CC1 (stereo not shown) [Compound 35, 5-Benzylidene-2-(3-fluoro-phenyl)-3-[3-(4-pyridin-2-yl-piperazin-1-yl)-propyl]-thiazolidin-4-one]",–,–,76.2,–
O=C1C(=Cc2ccccc2)SC(c2cccc([N+](=O)[O-])c2)N1CCCN1CCN(c2ncccn2)CC1 (stereo not shown) [Compound 39],–,–,–,% Inhib. @ 10 μM (CCR-5 receptor): 70.1%
"O=C1C(=Cc2ccccc2)SC(c2ccccc2)N1CCCN1CCCCCC1 (stereo not shown) [Compound 21, 3-(3-Azepan-1-ylpropyl)-5-benzylidene-2-phenyl-thiazolidin-4-one]",–,1.4,–,–
"O=C1CSC(c2cccc(Cl)c2)N1C1CCN(Cc2ccccc2)CC1 (stereo not shown) [Compound 16, 3-(1-Benzylpiperidin-4-yl)-2-(3-chlorophenyl)-thiazolidin-4-one]",140 to 141,3.81,–,–
"O=C1C(=Cc2ccccc2)SC(c2cccc(Cl)c2)N1CCCN1CCN(C2CCCCC2)CC1 (stereo not shown) [Compound 44, 5-Benzylidene-2-(3-chloro-phenyl)-3-[3-(4-cyclohexyl-piperazin-1-yl)-propyl]-thiazolidin-4-one]",–,–,54.5,–
"O=C1C(=Cc2cccc(Cl)c2)SC(c2cccc(F)c2)N1CCCN1CCN(c2ccccn2)CC1 (stereo not shown) [Compound 47, 5-(3-Chloro-benzylidene)-2-(3-fluoro-phenyl)-3-[3-(4-pyridin-2-yl-piperazin-1-yl)-propyl]-thiazolidin-4-ne]",–,–,–,% Inhib. @ 10 μM (CCR-5 receptor): 75.6%
"O=C1C(=Cc2cccc(F)c2)SC(c2cccc(Cl)c2)N1CCCN1CCN(c2ccccn2)CC1 (stereo not shown) [Compound 28, 2-(3-Chloro-phenyl)-5-(3-fluoro-benzylidene)-3-[3-(4-pyridin-2-yl-piperazin-1-yl)-propy1]-thiazolidin-4-one]",–,–,–,% Inhib. @ 10 μM (CCR-5 receptor): 78.8%
"O=C1/C(=C\C2CCCCC2)SC(c2cccc(Cl)c2)N1CCCN1CCCCC1 (stereo not shown) [Compound 14, 2-(3-Chlorophenyl)-5-cyclohexylmethylene-3-(3-piperidin-1-yl-propyl)-thiazolidin-4-one]",90 to 91,0.46,–,–
